{"source": "ChEMBL document CHEMBL1136822", "about": "“Synthesis, antiviral activity and pharmacokinetics of P1/P1' substituted 3-aminoindazole cyclic urea HIV protease inhibitors” (Bioorg Med Chem Lett, 2003)", "key": {"[1]": {"system": "Human immunodeficiency virus 1", "test": "Resistance factor of compound towards HIV-1 was measured as inhibitory concentration of compound required to inhibit viral RNA transcripts accumulation after infection in cells", "type": "functional"}, "[2]": {"system": "Human immunodeficiency virus 1", "test": "Inhibitory concentration of compound against HIV HXB2 strain", "type": "functional"}, "[3]": {"system": "Human immunodeficiency virus 1", "test": "Inhibitory concentration of compound against HIV abbott mutant virus 25-fold resistant to ritonavir", "type": "functional"}, "[4]": {"test": "Effect on increase in RNA IC90 value after HSA (45 mg/mL) and AAG (1 mg/mL) were determined in absence or presence of two plasma proteins (45 mg/mL human serum albumin and 1 mg/mL alpha-1-acid glycoprotein).", "type": "functional"}, "Homo sapiens": {"species": "Homo sapiens", "test": "Protein binding adjusted IC90s for the I84V mutant was determined", "type": "functional"}, "MT2 [5]": {"system": "MT2", "test": "Inhibitory concentration of compound against HIV […] mutant in MT2 cells", "type": "functional", "conditions": "Homo sapiens"}, "MT2 [6]": {"system": "MT2", "test": "Inhibitory concentration of compound against HIV V82F/[…] mutant in MT2 cells", "type": "functional", "conditions": "Homo sapiens"}, "[7]": {"biological_target": "Human immunodeficiency virus type 1 protease (Human immunodeficiency virus 1, UniProt Q72874)", "test": "Binding affinity against HIV-Protease was determined"}, "[8]": {"test": "Oral bioavailability in dog (dose 10 mg/kg)", "type": "ADME, organism-based, Canis lupus familiaris", "conditions": "in vivo"}, "[9]": {"test": "Half life period in dog", "type": "ADME, organism-based, Canis lupus familiaris", "conditions": "in vivo"}, "[10]": {"test": "8 hour trough Blood level in dog was measured after administration of compound", "type": "ADME, organism-based, Canis lupus familiaris", "conditions": "read-out: C 8 h"}, "[11]": {"system": "Human immunodeficiency virus 1", "test": "Inhibitory concentration of compound against HIV vertex mutant virus 19-fold resistant to […]", "type": "functional"}, "[12]": {"test": "Pharmacokinetic activity (Cmax) in dog", "type": "ADME, organism-based, Canis lupus familiaris", "conditions": "in vivo"}, "[13]": {"test": "Pharmacokinetic activity (Cmax) (10 mg/kg) was determined in dog", "type": "ADME, organism-based, Canis lupus familiaris", "parameters": "dose 10 mg/kg", "conditions": "in vivo"}, "[14]": {"test": "Half life period (10 mg/kg) was determined in dog", "type": "ADME, organism-based, Canis lupus familiaris", "conditions": "in vivo"}, "[15]": {"system": "Human immunodeficiency virus 1", "test": "Inhibitory concentration of compound against HIV vertex mutant virus 19-fold resistant to amprenavir", "type": "functional"}}}
{"molecule": "CCc1ccc(C[C@@H]2[C@H](O)[C@@H](O)[C@@H](Cc3ccc(CC)cc3)N(Cc3ccc4[nH]nc(N)c4c3)C(=O)N2Cc2ccccc2)cc1", "values": [{"measurement": "IC90", "setting": "[1]", "result": 19, "unit": "nM"}, {"measurement": "IC90", "setting": "[2]", "result": 81, "unit": "nM"}, {"measurement": "IC90", "setting": "[3]", "result": 12600, "unit": "nM"}, {"measurement": "Fold shift", "setting": "[4]", "result": 13}, {"measurement": "IC90", "setting": "Homo sapiens", "result": 247, "unit": "nM"}, {"measurement": "IC90", "setting": "MT2 [5]", "result": 410, "unit": "nM"}, {"measurement": "IC90", "setting": "MT2 [6]", "result": "> 1600", "unit": "nM"}, {"measurement": "Ki", "setting": "[7]", "result": 0.072, "unit": "nM"}]}
{"molecule": "Cc1cc(C)cc(C[C@@H]2[C@H](O)[C@@H](O)[C@@H](Cc3cc(C)cc(C)c3)N(Cc3ccc4[nH]nc(N)c4c3)C(=O)N2Cc2ccccc2)c1", "values": [{"measurement": "IC90", "setting": "[1]", "result": 50, "unit": "nM"}, {"measurement": "IC90", "setting": "[2]", "result": 100, "unit": "nM"}, {"measurement": "IC90", "setting": "[3]", "result": "> 7300", "unit": "nM"}, {"measurement": "Fold shift", "setting": "[4]", "result": 7}, {"measurement": "IC90", "setting": "Homo sapiens", "result": 350, "unit": "nM"}, {"measurement": "Ki", "setting": "[7]", "result": 0.2, "unit": "nM"}]}
{"molecule": "CCCCN1C(=O)N(Cc2ccc3[nH]nc(N)c3c2)[C@H](Cc2ccccc2)[C@H](O)[C@@H](O)[C@H]1Cc1ccccc1", "values": [{"measurement": "bioavailability", "setting": "[8]", "result": 57, "unit": "%"}, {"measurement": "half-life", "setting": "[9]", "result": 7.7, "unit": "h"}, {"measurement": "concentration at 8 h", "setting": "[10]", "result": 7.2, "unit": "µM"}, {"measurement": "IC90", "setting": "[11]", "result": 87, "unit": "nM"}, {"measurement": "IC90", "setting": "[1]", "result": 56, "unit": "nM"}, {"measurement": "IC90", "setting": "[2]", "result": 69, "unit": "nM"}, {"measurement": "IC90", "setting": "[3]", "result": 1470, "unit": "nM"}, {"measurement": "Fold shift", "setting": "[4]", "result": 17}, {"measurement": "IC90", "setting": "Homo sapiens", "result": 952, "unit": "nM"}, {"measurement": "IC90", "setting": "MT2 [5]", "result": 390, "unit": "nM"}, {"measurement": "IC90", "setting": "MT2 [6]", "result": 1790, "unit": "nM"}, {"measurement": "Ki", "setting": "[7]", "result": 0.021, "unit": "nM"}, {"measurement": "Cmax", "setting": "[12]", "result": 11.7, "unit": "µM"}]}
{"molecule": "Cc1cccc(C[C@@H]2[C@H](O)[C@@H](O)[C@@H](Cc3cccc(C)c3)N(Cc3ccc4[nH]nc(N)c4c3)C(=O)N2Cc2ccccc2)c1", "values": [{"measurement": "Cmax", "setting": "[13]", "result": 3.6, "unit": "µM"}, {"measurement": "bioavailability", "setting": "[8]", "result": 20, "unit": "%"}, {"measurement": "half-life", "setting": "[9]", "result": 3.9, "unit": "h"}, {"measurement": "concentration at 8 h", "setting": "[10]", "result": 0.35, "unit": "µM"}, {"measurement": "IC90", "setting": "[1]", "result": 25, "unit": "nM"}, {"measurement": "IC90", "setting": "[2]", "result": 26, "unit": "nM"}, {"measurement": "IC90", "setting": "[3]", "result": 1760, "unit": "nM"}, {"measurement": "Fold shift", "setting": "[4]", "result": 12}, {"measurement": "IC90", "setting": "Homo sapiens", "result": 300, "unit": "nM"}, {"measurement": "IC90", "setting": "MT2 [5]", "result": 104, "unit": "nM"}, {"measurement": "IC90", "setting": "MT2 [6]", "result": 2680, "unit": "nM"}, {"measurement": "Ki", "setting": "[7]", "result": 0.062, "unit": "nM"}]}
{"molecule": "Cc1ccc(C[C@@H]2[C@H](O)[C@@H](O)[C@@H](Cc3ccc(C)cc3)N(Cc3ccc4[nH]nc(N)c4c3)C(=O)N2Cc2ccccc2)cc1", "values": [{"measurement": "Cmax", "setting": "[13]", "result": 3.6, "unit": "µM"}, {"measurement": "bioavailability", "setting": "[8]", "result": 29, "unit": "%"}, {"measurement": "concentration at 8 h", "setting": "[10]", "result": 0.35, "unit": "µM"}, {"measurement": "IC90", "setting": "[11]", "result": 24, "unit": "nM"}, {"measurement": "IC90", "setting": "[1]", "result": 12, "unit": "nM"}, {"measurement": "IC90", "setting": "[2]", "result": 17, "unit": "nM"}, {"measurement": "IC90", "setting": "[3]", "result": 1880, "unit": "nM"}, {"measurement": "Fold shift", "setting": "[4]", "result": 16}, {"measurement": "IC90", "setting": "Homo sapiens", "result": 192, "unit": "nM"}, {"measurement": "IC90", "setting": "MT2 [5]", "result": 310, "unit": "nM"}, {"measurement": "IC90", "setting": "MT2 [6]", "result": "> 1700", "unit": "nM"}, {"measurement": "Ki", "setting": "[7]", "result": 0.047, "unit": "nM"}, {"measurement": "half-life", "setting": "[14]", "result": 3.9, "unit": "h"}]}
{"molecule": "Nc1[nH]nc2ccc(CN3C(=O)N(Cc4ccccc4)[C@H](Cc4ccccc4)[C@H](O)[C@@H](O)[C@H]3Cc3ccccc3)cc12", "values": [{"measurement": "IC90", "setting": "[15]", "result": 257, "unit": "nM"}, {"measurement": "IC90", "setting": "[1]", "result": 62, "unit": "nM"}, {"measurement": "IC90", "setting": "[2]", "result": 92, "unit": "nM"}, {"measurement": "IC90", "setting": "[3]", "result": 1520, "unit": "nM"}, {"measurement": "IC90", "setting": "Homo sapiens", "result": 496, "unit": "nM"}, {"measurement": "IC90", "setting": "MT2 [5]", "result": 370, "unit": "nM"}, {"measurement": "IC90", "setting": "MT2 [6]", "result": 2100, "unit": "nM"}]}
{"molecule": "CCCCN1C(=O)N(Cc2ccc3[nH]nc(N)c3c2)[C@H](Cc2cccc(C)c2)[C@H](O)[C@@H](O)[C@H]1Cc1cccc(C)c1", "values": [{"measurement": "IC90", "setting": "[1]", "result": 31, "unit": "nM"}, {"measurement": "IC90", "setting": "[2]", "result": 54, "unit": "nM"}, {"measurement": "IC90", "setting": "[3]", "result": 1600, "unit": "nM"}, {"measurement": "Fold shift", "setting": "[4]", "result": 25}, {"measurement": "IC90", "setting": "Homo sapiens", "result": 775, "unit": "nM"}, {"measurement": "IC90", "setting": "MT2 [6]", "result": 1600, "unit": "nM"}, {"measurement": "Ki", "setting": "[7]", "result": 0.045, "unit": "nM"}]}
{"molecule": "CCCCN1C(=O)N(Cc2ccc3[nH]nc(N)c3c2)[C@H](Cc2ccc(C)cc2)[C@H](O)[C@@H](O)[C@H]1Cc1ccc(C)cc1", "values": [{"measurement": "bioavailability", "setting": "[8]", "result": 23, "unit": "%"}, {"measurement": "half-life", "setting": "[9]", "result": 1.6, "unit": "h"}, {"measurement": "concentration at 8 h", "setting": "[10]", "result": 0.07, "unit": "µM"}, {"measurement": "IC90", "setting": "[11]", "result": 7, "unit": "nM"}, {"measurement": "IC90", "setting": "[1]", "result": 12, "unit": "nM"}, {"measurement": "IC90", "setting": "[2]", "result": 16, "unit": "nM"}, {"measurement": "IC90", "setting": "[3]", "result": 1700, "unit": "nM"}, {"measurement": "Fold shift", "setting": "[4]", "result": 35}, {"measurement": "IC90", "setting": "Homo sapiens", "result": 420, "unit": "nM"}, {"measurement": "IC90", "setting": "MT2 [6]", "result": 1750, "unit": "nM"}, {"measurement": "Ki", "setting": "[7]", "result": 0.037, "unit": "nM"}, {"measurement": "Cmax", "setting": "[12]", "result": 1.2, "unit": "µM"}]}
{"molecule": "Nc1n[nH]c2ccc(CN3C(=O)N(Cc4ccccc4)[C@H](Cc4ccccc4)[C@H](O)[C@@H](O)[C@H]3Cc3ccccc3)cc12", "values": [{"measurement": "bioavailability", "setting": "[8]", "result": 60, "unit": "%"}, {"measurement": "concentration at 8 h", "setting": "[10]", "result": 2.8, "unit": "µM"}, {"measurement": "half-life", "setting": "[14]", "result": 3.5, "unit": "h"}, {"measurement": "Cmax", "setting": "[12]", "result": 9.6, "unit": "µM"}]}
{"molecule": "CCCCN1C(=O)N(Cc2ccc3[nH]nc(N)c3c2)[C@H](Cc2ccc(CC)cc2)[C@H](O)[C@@H](O)[C@H]1Cc1ccc(CC)cc1", "values": [{"measurement": "IC90", "setting": "[1]", "result": 10, "unit": "nM"}, {"measurement": "IC90", "setting": "[2]", "result": 22, "unit": "nM"}, {"measurement": "IC90", "setting": "[3]", "result": 4030, "unit": "nM"}, {"measurement": "Fold shift", "setting": "[4]", "result": 22}, {"measurement": "IC90", "setting": "Homo sapiens", "result": 220, "unit": "nM"}, {"measurement": "IC90", "setting": "MT2 [5]", "result": 260, "unit": "nM"}, {"measurement": "IC90", "setting": "MT2 [6]", "result": "> 1800", "unit": "nM"}, {"measurement": "Ki", "setting": "[7]", "result": 0.094, "unit": "nM"}]}
{"molecule": "CCCCN1C(=O)N(Cc2ccc3[nH]nc(N)c3c2)[C@H](Cc2cc(C)cc(C)c2)[C@H](O)[C@@H](O)[C@H]1Cc1cc(C)cc(C)c1", "values": [{"measurement": "IC90", "setting": "[1]", "result": 66, "unit": "nM"}, {"measurement": "IC90", "setting": "[2]", "result": 56, "unit": "nM"}, {"measurement": "IC90", "setting": "[3]", "result": 7540, "unit": "nM"}, {"measurement": "Ki", "setting": "[7]", "result": 0.19, "unit": "nM"}]}
